Assays:
[1] = tested on: human lens cortical proteins; assay: Identification of AcK sites in proteins of Aggrelyte-2-treated lens (AcK peptide enrichment, LC-MS/MS); parameters: key to Fold Change (Aggrelyte-2 vs Control) [Total Sum]: *: were not detected in the control lens but were prominent in the Aggrelyte-2-treated lens
Procedure: (§1) The AcK modification sites and relative levels at those sites in the Aggrelyte-2-treated and untreated (control) human lens cortical proteins were evaluated in the lens (from a donor) that had the largest overall AcK differential measured by Western blot analysis (blot not shown; densitometric summary in FIG. 14B) and LC-MS/MS (FIG. 15B). Each sample (315 μg) was spiked with 200 ng of acetylated bovine serum albumin (AcBSA) protein standard, reduced, alkylated, and digested with trypsin using a urea-based method and then desalted using a C18 resin before being lyophilized. The samples were then immunoprecipitated according to the manufacturer's protocol for the PTMScan Acetyl-Lysine Motif Kit No. 13416 (Cell Signaling Technology). Peptides were purified with a Pierce C18 spin column (Thermo Fisher Scientific) and dried in a Speed Vac concentrator at 45° C. The peptides were resuspended in 3% acetonitrile in 0.1% formic acid for MS analysis.
(§2) The enriched AcK-bearing peptides were loaded onto a 2 cm PepMap 100 nanoviper trapping column and chromatographically resolved with a 0.075×250 mm, […] Acclaim PepMap RSLC reversed-phase nanocolumn (Thermo Scientific) using a 1290 Infinity II LC system equipped with a nanoadapter (Agilent). The mobile phase consisted of water+0.1% formic acid (A) and 90% aqueous acetonitrile+0.1% formic acid (B). Samples were loaded onto the trapping column at 3.0 μL/min for 3.5 min under initial conditions before being chromatographically separated at an effective flow rate of 330 nL/min using a gradient of 3-8% B over 3 min, 8-30% B over 33 min, and 30-40% B over 4 min at 40° C. The gradient was followed by a column wash at 75% B for 5 min. Data were collected using a 6550 Q-TOF equipped with a nanosource (Agilent Technologies) operated using intensity-dependent CID MS/MS to generate peptide identifications. MS/MS data were collected in positive ion polarity over a mass range of 290-1700 m/z at a scan rate of 8 spectra/second for MS scans and a mass range of 50-1700 m/z at a scan rate of 3 spectra/second for MS/MS scans. All charge states, except singly charged species, were allowed during MS/MS acquisition.
(§3) Tandem mass spectra were extracted, searched, and summarized using PEAKS X+ Studio 10.5 software (Bioinformatics Solutions Inc., Waterloo, Ontario). The spectra were searched against the UniProtKB SwissProt [2022_02] Homo sapiens database, allowing for up to three missed semitryptic cleavages with fixed carbamidomethylation of cysteine and a maximum of four variable modifications of deamidation of asparagine and glutamine, oxidation of methionine and/or acetylation of lysine per peptide. The allowed monoisotopic peptide mass tolerance was ±15.0 ppm, and the MS/MS tolerance was ±0.05 da. A false discovery rate (FDR) filter of 0.5% was used corresponding to a −10 log P score ≥19.3.
(§4) The MS-only level data from the LC-MS/MS analyses were extracted and aligned using Profinder V.B.10.01 software (Agilent Technologies). Retention times, neutral masses, and chemical formulas generated from identified acetyl peptides were used to perform batch-targeted feature extraction. Data were extracted with an ion count threshold of two or more ions, 5000 counts, and a score threshold of 70. The score was based on the quality of the mass accuracy, isotope abundances, and isotope spacing of compounds based on the chemical formula of the target peptides within a specified retention time window. Using the peptide isotope model, charge states 2-6 were allowed with H^+ and Na^+ charge carriers. The retention time window and mass window alignment tolerances were set to 0.4 min and 10 ppm, respectively. The extracted peptide peak areas were then used to determine a fold change value in the treated vs. control samples to help identify potential AcK sites that may be affected by aggrelyte-2. Due to a lack of statistical power, a three-fold change filter was used as a sufficient cutoff to identify potential AcK sites of interest. […]

[2] = target: T1, human lens cortical proteins (Homo sapiens, UniProt P02489); assay: as above; parameters: key to Fold Change (Aggrelyte-2 vs Control) [Total Sum]: *: were not detected in the control lens but were prominent in the Aggrelyte-2-treated lens; details: for Aggrelyte-2 treated Area: lens of donor
T1 construct: from tissue; host or cells: cortex of a human lens from a donor, treated ex vivo
T1 sequence (P02489 1-173): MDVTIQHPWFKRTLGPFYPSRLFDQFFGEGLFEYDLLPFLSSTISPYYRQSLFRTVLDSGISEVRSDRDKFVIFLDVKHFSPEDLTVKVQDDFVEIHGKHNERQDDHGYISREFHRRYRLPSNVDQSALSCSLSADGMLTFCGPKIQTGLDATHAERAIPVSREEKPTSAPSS
Procedure: as §1, §2, §3, §4

[3] = target: T2, human lens cortical proteins (Homo sapiens, UniProt P32320); assay: as above; parameters: key to Fold Change (Aggrelyte-2 vs Control) [Total Sum]: *: were not detected in the control lens but were prominent in the Aggrelyte-2-treated lens; details: Cytidine deaminase K51
T2 construct: from tissue; host or cells: cortex of a human lens from a donor, treated ex vivo
T2 sequence (P32320 whole entry): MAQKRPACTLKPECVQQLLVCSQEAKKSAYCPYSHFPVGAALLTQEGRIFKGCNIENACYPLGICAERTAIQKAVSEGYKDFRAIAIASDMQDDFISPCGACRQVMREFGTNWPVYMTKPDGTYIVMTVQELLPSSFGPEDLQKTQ
Procedure: as §1, §2, §3, §4

human recombinant αAC = target: T3, human recombinant αAC (Homo sapiens, UniProt P02489); assay: AGE formation (CML, CEL) in glycated recombinant αAC; assay type: biochemical; details: αAC 3 mg/mL pretreated with 10 mM aggrelyte-2 for 24 h, glycating mixture 5 days
T3 sequence (P02489 1-173): T1 sequence (P02489 1-173)
Procedure: To investigate the effects of Aggrelyte-2 on advanced glycation end product (AGE) formation, human recombinant αAC (3 mg/mL) or γD-crystallin (γDC, 2 mg/mL) in PBS was treated with or without aggrelyte-2 (10 mM for αAC and 1.25 mM for γDC) for 24 h, dialyzed against 100 mM sodium phosphate buffer pH 7.4 for 16 h and incubated with or without a glycating mixture (2 mM ascorbate, 25 mM D-glucose and 250 μM methylglyoxal) in 100 mM sodium phosphate buffer pH 7.4 for 5 days (after adding 0.002% sodium azide) at 37° C. The incubated proteins were dialyzed against PBS for 16 h, treated with 100 mM sodium borohydride for 1 h at room temperature, and acid hydrolyzed. Two AGEs, N^−-carboxymethyllysine (CML) and N^□-carboxyethyllysine (CEL), were measured by LC-MS/MS as described above. Each sample was separately processed 3-4 times.

Question: What does the source list for `COC(=O)[C@H](CSC(C)=O)NC(C)=O` [Aggrelyte-2, N,S-diacetyl-L-cysteine methyl ester]?
Answer: Aggrelyte-2 treated Area ([1]; Acetylated Bovine Serum Albumin Standard Spike at 200 ng in each sample (workup control), 17 peptides summed): 3.68E+07; Fold Change (Aggrelyte-2 vs Control) [Total Sum] ([1]; Actin cytoplasmic 1 K61): 3.48; Aggrelyte-2 treated Area ([1]; Actin cytoplasmic 1 K61, lens of donor): 7.63E+04; Fold Change (Aggrelyte-2 vs Control) [Total Sum] ([1]; Actin cytoplasmic 1 K213): 3.53; Aggrelyte-2 treated Area ([1]; Actin cytoplasmic 1 K213, lens of donor): 1.03E+05; Fold Change (Aggrelyte-2 vs Control) [Total Sum] ([1]; AlphaB-crystallin K72): 3.56; Aggrelyte-2 treated Area ([1]; AlphaB-crystallin K72, lens of donor): 6.31E+05; Fold Change (Aggrelyte-2 vs Control) [Total Sum] ([1]; AlphaB-crystallin K174): 7.41; Aggrelyte-2 treated Area ([1]; AlphaB-crystallin K174, lens of donor): 5.84E+06; Fold Change (Aggrelyte-2 vs Control) [Total Sum] ([1]; BetaB2-crystallin K42): 25.80; Aggrelyte-2 treated Area ([1]; BetaB2-crystallin K42, lens of donor): 6.98E+05; Fold Change (Aggrelyte-2 vs Control) [Total Sum] ([1]; Filensin K360): 3.94; Aggrelyte-2 treated Area ([1]; Filensin K360, lens of donor): 1.16E+05; Fold Change (Aggrelyte-2 vs Control) [Total Sum] ([1]; Glyceraldehyde-3-phosphate dehydrogenase K263): 3.18; Aggrelyte-2 treated Area ([1]; Glyceraldehyde-3-phosphate dehydrogenase K263, lens of donor): 1.04E+05; Fold Change (Aggrelyte-2 vs Control) [Total Sum] ([1]; Peroxiredoxin-6 K56): 3.26; Aggrelyte-2 treated Area ([1]; Peroxiredoxin-6 K56, lens of donor): 5.83E+05; Fold Change (Aggrelyte-2 vs Control) [Total Sum] ([1]; Phakinin K400): 14.48; Aggrelyte-2 treated Area ([1]; Phakinin K400, lens of donor): 2.21E+05; Fold Change (Aggrelyte-2 vs Control) [Total Sum] ([1]; Retinal dehydrogenase 1 K495): 9.12; Aggrelyte-2 treated Area ([1]; Retinal dehydrogenase 1 K495, lens of donor): 9.11E+04; Fold Change (Aggrelyte-2 vs Control) [Total Sum] ([2]; AlphaA-crystallin K70): 3.13; Aggrelyte-2 treated Area ([2]; AlphaA-crystallin K70): 8.80E+06; Fold Change (Aggrelyte-2 vs Control) [Total Sum] ([2]; AlphaA-crystallin K88): *; Aggrelyte-2 treated Area ([2]; AlphaA-crystallin K88): 1.11E+05; Fold Change (Aggrelyte-2 vs Control) [Total Sum] [3]: 3.66; Aggrelyte-2 treated Area ([3]; lens of donor): 7.26E+05; levels of both CML and CEL (AGEs) after glycation (human recombinant αAC): significantly reduced (p<0.0001)
